# Experimental data reported in US12275725B2, “Inhibitors of the notch transcriptional activation complex and methods for use of the same” (University of Miami, priority 2019, dated 2025).
# Tests used:
# [1] = system: intestinal crypts; assay: Histological analysis of mouse intestine tissue (H&E and PAS staining); type: in vivo, BALB/c mice; details: 5 days; DBZ at efficacious dose, NADi-351 at 4x the efficacious dose
# Procedure: The compounds and salts disclosed herein no not induce goblet cell metaplasia in intestinal crypts. Intestinal crypts were exposed to vehicle (DMSO), an efficacious dose of dibenzazepine (“DBZ”), a γ-secretase inhibitor, and 4× the efficacious dose of NADi-351 and stained with a hemotoxylin and eosin (“H&E”) stain and a periodic acid-Schiff (“PAS”) stain.
# Six-week old BALB/c mice (Jackson Laboratories) were injected intraperitoneally with NADi-351, daily for 5 days. Small intestine samples were harvested on day 5. Formalin-fixed and paraffin-embedded tissues were sectioned at 3 μm thickness. Histochemical identification of intestinal cell types was performed with Periodic Acid-Schiff (PAS) staining kit (ab150680, Abcam), according to manufacturer's instructions.
# [2] = system: Notch target genes; assay: Quantitative RT-PCR of Notch target genes in OE33 cells; type: cell-based, human; details: OE33, 48 h, compared to control (DMSO), normalized to TBP
# Procedure: Quantitative RT-PCR Other Assays
# RNA was isolated from OE33 cells treated with either DMSO (vehicle) or NADi-351 for 48 h, using an RNA purification kit (Qiagen), following the manufacturer's instructions. cDNA was synthesized using the High Capacity cDNA Reverse Transcription kit (Applied Biosystems), according to the manufacturer's instructions. qPCR reactions were carried out in the Bio-Rad CFX96 thermal cycler using Sybr Green Master Mix (Bio-Rad). Gene expression was normalized to housekeeping gene TBP. […]
# [3] = biological target: T1, Notch1 transcriptional complex (Homo sapiens, UniProt P46531); assay: 2xCSL DNA affinity precipitation, OE33 nuclear lysate: Notch1; type: cell-based; details: OE33, 48 hours of treatment
# T1 construct: endogenous in cells; host or cells: OE33 cells, nuclear lysate
# T1 sequence (P46531 1754-2555 limits assumed): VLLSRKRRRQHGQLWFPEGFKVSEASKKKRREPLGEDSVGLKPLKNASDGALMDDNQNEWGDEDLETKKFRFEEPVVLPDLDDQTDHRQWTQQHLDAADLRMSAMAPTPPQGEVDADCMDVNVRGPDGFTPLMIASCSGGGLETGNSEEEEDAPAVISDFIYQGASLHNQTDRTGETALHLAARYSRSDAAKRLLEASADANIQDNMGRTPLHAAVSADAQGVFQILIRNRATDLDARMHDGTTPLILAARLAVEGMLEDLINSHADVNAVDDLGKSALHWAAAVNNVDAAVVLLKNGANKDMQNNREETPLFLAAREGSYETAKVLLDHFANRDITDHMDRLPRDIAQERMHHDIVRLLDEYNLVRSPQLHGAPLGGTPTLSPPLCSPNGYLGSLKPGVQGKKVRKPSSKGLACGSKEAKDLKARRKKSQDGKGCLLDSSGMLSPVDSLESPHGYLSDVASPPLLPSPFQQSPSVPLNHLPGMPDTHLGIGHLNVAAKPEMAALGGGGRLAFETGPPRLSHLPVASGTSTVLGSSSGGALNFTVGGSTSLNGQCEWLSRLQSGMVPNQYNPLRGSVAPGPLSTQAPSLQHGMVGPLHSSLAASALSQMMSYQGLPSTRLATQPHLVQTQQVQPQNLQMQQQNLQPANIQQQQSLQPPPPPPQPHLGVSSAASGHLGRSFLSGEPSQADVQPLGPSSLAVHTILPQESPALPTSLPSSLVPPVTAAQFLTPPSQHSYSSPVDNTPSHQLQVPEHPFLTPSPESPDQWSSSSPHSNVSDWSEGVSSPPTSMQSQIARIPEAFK
# T1 sequence (Q06330 whole entry partner): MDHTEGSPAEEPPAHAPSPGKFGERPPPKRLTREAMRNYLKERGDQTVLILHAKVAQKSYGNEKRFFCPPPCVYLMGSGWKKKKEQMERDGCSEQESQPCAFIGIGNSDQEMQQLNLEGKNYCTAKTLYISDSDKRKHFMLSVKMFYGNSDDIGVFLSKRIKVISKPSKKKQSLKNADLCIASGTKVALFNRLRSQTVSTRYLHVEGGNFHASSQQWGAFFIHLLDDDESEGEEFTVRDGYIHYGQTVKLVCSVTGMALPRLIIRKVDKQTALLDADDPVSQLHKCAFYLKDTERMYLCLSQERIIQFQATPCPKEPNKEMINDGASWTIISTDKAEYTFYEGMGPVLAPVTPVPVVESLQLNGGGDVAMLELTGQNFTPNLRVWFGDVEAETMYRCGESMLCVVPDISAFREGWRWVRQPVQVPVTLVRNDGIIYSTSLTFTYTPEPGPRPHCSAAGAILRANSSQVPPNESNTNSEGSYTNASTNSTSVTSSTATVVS
# Procedure: DNA Affinity Purification
# Streptavidin agarose beads (Pierce) were incubated with previously annealed 47-mer biotinylated dsDNA containing two high-affinity CSL binding sites facing forward (2×CSL binding DNA) or 2 mutated CSL binding sites (mut. DNA). Sequences were previously reported by Weaver et al. (2014) Cancer Res. The nuclear lysates of OE33 cell lines were incubated with the DNA streptavidin beads, and bound proteins were analyzed by Western blot. Protein analysis was carried out using conventional SDS-PAGE and transfer techniques. Blots were probed with the indicated antibody (“Ab”), using standard conditions, and detected using enhanced chemiluminescence (“ECL”). The following Ab were used: anti-Notch1^val1744 (4147S, Cell Signaling Technology), anti-Notch2^val1697 (SAB4502022, Sigma-Aldrich), anti-Notch3 (5276S, Cell Signaling), anti-CSL (5313S, Cell signaling), anti-SP1 (5931S, Cell Signaling), and anti-GAPDH (ab9483 Abcam).
compound,measurement,setting,value
"COc1cc(/C(C)=C2\SC(=S)N(CC(=O)N(C)C)C2=O)cc(F)c1OCc1nnc[nH]1 [NADi-351, (Z)-2-(5-(1-(4-((1H-1,2,4-triazol-3-yl)methoxy)-3-fluoro-5-methoxyphenyl)ethylidene)-4-oxo-2-thioxothiazolidin-3-yl)-N,N-dimethylacetamide]",goblet cell metaplasia / crypt integrity (H&E and PAS staining),[1],no goblet cell metaplasia and intact crypts
same,expression of Notch target genes,[2],decreased the expression of Notch target genes
same,formation of the Notch1 intracellular domain (N1icd) complex,[3],inhibited the formation
